{"source": "ChEMBL document CHEMBL1201862", "about": "“PubChem BioAssay data set” (2004)", "key": {"[1]": {"biological_target": "Metabotropic glutamate receptor 3 (Rattus norvegicus, UniProt P31422)", "sequence (P31422 whole entry)": "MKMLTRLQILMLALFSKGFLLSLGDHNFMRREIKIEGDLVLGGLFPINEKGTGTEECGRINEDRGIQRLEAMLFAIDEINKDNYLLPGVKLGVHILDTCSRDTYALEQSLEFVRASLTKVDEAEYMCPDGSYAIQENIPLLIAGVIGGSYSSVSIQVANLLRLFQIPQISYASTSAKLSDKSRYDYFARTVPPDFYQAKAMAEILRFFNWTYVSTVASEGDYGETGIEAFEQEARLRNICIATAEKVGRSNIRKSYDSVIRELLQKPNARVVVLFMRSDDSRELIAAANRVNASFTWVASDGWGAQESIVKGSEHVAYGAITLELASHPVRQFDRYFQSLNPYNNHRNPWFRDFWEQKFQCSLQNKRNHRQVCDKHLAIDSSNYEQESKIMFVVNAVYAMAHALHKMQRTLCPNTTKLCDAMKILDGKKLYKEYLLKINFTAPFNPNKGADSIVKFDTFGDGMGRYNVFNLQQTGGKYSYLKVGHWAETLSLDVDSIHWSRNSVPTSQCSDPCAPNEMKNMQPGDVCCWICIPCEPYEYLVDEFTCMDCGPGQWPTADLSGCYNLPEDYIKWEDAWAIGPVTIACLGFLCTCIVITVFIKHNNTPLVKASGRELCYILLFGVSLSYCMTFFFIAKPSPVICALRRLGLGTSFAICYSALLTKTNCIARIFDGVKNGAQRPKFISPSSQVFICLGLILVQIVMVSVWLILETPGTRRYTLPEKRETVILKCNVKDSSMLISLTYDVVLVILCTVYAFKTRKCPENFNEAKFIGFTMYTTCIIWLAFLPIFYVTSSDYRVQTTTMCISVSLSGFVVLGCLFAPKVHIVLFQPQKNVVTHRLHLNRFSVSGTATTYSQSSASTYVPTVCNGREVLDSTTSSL", "test": "inhibitors of rat mGlu3 Galpha15 signaling – TREx293 cells, calcium flux, mGlu3 NAM project, dose response (AID 651840)", "format": "functional"}, "[2]": {"test": "IGROV1 cell killing – plate reader, dry powder samples, PAX8 inhibitor project, dose response (AID 743043)", "format": "functional, cell-based", "conditions": "IGROV-1"}, "[3]": {"test": "OVCAR-3 cell viability loss – plate reader, dry powder samples, PAX8 inhibitor project, dose response (AID 743044)", "format": "functional, cell-based"}, "[4]": {"biological_target": "Paired box protein Pax-8 (Homo sapiens, UniProt Q06710)", "sequence (Q06710 whole entry)": "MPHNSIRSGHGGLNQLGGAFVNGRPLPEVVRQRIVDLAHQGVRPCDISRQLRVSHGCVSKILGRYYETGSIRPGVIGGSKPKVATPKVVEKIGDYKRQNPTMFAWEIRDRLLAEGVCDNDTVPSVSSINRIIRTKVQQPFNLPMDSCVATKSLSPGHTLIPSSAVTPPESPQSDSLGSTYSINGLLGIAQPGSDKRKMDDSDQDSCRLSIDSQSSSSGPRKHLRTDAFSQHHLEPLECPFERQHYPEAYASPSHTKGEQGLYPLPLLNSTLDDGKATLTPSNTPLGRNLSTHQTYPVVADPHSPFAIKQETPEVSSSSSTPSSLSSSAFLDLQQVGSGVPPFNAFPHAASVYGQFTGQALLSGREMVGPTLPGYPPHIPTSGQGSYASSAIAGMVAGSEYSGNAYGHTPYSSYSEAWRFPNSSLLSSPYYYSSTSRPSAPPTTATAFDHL", "test": "PAX8 transcriptional activity inhibition in RMG-I – RMG-I cells, luciferase, cherry-pick, dose response (AID 687027);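 note: luciferase reporter driven by Pax8 target thyroperoxidase promoter measured by SteadyGlo luminescence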", "format": "functional, cell-based"}, "[5]": {"test": "toxicity toward immortalized ovarian surface epithelium – cell-based, plate reader, dry powder samples, cytotoxicity control for PAX8 inhibitor project, dose response (AID 743045)", "format": "functional"}, "[6]": {"biological_target": "Glucose-6-phosphate 1-dehydrogenase (Homo sapiens, UniProt P11413)", "sequence (P11413 whole entry)": "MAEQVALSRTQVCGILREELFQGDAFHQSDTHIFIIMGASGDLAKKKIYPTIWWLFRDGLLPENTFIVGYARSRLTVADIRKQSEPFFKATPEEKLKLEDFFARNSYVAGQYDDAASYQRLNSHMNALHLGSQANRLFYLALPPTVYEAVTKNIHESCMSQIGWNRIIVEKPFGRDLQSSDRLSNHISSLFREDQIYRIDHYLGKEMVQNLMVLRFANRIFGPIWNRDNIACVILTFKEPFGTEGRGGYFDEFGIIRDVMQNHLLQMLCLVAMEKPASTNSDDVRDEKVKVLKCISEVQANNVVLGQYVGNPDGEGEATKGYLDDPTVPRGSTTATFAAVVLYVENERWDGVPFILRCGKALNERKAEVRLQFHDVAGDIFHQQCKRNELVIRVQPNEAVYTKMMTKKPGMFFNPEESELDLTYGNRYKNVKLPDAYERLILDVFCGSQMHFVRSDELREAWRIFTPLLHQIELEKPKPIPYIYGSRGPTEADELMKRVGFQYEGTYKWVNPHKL", "test": "inhibition of Homo sapiens G6PD, dose series – biochemical, fluorescence, selectivity assay for P. falciparum G6PD inhibitor project, dose response (AID 504792)", "format": "functional"}, "[7]": {"biological_target": "1-phosphatidylinositol 4,5-bisphosphate phosphodiesterase beta-3 (Homo sapiens, UniProt Q01970)", "sequence (Q01970 whole entry)": "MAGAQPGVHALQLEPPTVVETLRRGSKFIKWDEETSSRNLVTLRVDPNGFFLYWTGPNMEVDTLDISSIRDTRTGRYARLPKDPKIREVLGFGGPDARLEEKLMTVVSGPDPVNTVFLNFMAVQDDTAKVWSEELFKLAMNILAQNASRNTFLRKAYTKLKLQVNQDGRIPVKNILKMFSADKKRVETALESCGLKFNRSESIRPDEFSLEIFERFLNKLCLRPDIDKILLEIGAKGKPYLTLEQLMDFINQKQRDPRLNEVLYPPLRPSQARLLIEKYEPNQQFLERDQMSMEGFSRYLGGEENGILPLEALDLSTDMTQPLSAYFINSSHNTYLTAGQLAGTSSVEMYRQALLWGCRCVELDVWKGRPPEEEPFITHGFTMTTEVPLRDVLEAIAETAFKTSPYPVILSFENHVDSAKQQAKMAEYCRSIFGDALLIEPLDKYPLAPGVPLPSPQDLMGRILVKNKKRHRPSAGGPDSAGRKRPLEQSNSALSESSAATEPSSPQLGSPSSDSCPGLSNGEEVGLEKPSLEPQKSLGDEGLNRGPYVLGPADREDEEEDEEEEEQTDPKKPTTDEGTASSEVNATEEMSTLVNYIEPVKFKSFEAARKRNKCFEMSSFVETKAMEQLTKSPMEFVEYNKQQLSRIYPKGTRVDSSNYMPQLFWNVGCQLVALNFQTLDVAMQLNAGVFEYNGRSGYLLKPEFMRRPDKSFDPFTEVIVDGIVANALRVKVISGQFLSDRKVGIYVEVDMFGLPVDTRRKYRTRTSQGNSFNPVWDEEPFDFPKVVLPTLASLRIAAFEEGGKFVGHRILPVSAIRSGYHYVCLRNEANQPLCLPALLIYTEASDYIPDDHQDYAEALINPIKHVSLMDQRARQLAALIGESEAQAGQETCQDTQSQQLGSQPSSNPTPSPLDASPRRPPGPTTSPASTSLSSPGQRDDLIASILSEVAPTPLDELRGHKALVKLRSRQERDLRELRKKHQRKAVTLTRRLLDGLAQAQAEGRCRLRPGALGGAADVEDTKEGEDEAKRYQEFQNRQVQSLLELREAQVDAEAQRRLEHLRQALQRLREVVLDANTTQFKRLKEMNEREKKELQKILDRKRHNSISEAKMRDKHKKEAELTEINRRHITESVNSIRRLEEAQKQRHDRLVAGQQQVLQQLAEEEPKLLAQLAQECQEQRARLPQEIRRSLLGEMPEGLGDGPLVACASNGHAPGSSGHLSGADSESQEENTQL", "test": "Fluorescence-based biochemical high throughput dose response assay to identify inhibitors of phospholipase C isozymes (PLC-B3)."}, "[8]": {"biological_target": "1-phosphatidylinositol 4,5-bisphosphate phosphodiesterase gamma-1 (Homo sapiens, UniProt P19174)", "sequence (P19174 whole entry)": "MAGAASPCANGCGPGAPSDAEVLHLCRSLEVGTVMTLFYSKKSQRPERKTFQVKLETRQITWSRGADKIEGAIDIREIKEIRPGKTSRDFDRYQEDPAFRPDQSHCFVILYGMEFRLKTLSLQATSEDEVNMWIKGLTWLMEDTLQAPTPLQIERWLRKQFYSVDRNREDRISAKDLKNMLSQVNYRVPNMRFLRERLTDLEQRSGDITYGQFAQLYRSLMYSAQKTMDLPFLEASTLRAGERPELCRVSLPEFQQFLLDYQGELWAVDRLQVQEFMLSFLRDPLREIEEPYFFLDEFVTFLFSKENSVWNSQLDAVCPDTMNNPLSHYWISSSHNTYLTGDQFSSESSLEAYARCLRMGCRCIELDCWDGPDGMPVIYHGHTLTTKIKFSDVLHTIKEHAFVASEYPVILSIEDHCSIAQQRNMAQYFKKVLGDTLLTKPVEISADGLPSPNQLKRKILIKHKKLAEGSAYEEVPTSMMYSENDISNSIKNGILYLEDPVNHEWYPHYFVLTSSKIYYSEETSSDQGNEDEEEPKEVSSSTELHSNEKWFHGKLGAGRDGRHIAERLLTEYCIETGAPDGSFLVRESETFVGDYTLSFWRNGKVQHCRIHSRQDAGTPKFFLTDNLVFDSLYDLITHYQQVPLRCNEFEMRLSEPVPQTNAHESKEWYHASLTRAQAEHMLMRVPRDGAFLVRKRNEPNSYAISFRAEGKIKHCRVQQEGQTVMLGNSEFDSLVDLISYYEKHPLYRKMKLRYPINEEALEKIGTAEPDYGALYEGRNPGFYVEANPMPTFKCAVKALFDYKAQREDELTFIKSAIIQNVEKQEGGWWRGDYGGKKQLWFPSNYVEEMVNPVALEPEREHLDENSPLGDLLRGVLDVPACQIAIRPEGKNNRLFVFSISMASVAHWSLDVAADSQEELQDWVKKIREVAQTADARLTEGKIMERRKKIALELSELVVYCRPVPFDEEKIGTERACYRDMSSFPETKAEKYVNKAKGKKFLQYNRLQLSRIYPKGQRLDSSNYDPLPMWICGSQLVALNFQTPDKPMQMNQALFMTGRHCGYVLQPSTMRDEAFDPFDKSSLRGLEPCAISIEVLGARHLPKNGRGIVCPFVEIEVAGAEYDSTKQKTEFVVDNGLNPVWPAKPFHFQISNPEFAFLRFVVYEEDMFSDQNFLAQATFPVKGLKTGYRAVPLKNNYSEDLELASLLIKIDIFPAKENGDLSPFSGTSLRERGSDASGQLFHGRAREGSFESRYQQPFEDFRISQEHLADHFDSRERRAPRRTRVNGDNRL", "test": "Counterscreen for inhibitors of phospholipase C isozymes (PLC-B3): Fluorescence-based biochemical high throughput dose response assay to identify inhibitors of phospholipase C isozymes (PLC-gamma1)."}, "[9]": {"test": "Counterscreen for […] of the human trace amine associated receptor 1 (TAAR1): Fluorescence-based cell-based high throughput dose response assay to identify nonselective Ga16 agonists.", "format": "functional"}, "[10]": {"test": "Counterscreen for antagonists of the human trace amine associated receptor 1 (hTAAR1): Fluorescence-based cell-based high throughput dose response assay to identify nonselective Ga16 antagonists.", "format": "functional"}, "[11]": {"biological_target": "T1, Trace amine-associated receptor 1 (Homo sapiens, UniProt Q96RJ0)", "T1 sequence (Q96RJ0 whole entry)": "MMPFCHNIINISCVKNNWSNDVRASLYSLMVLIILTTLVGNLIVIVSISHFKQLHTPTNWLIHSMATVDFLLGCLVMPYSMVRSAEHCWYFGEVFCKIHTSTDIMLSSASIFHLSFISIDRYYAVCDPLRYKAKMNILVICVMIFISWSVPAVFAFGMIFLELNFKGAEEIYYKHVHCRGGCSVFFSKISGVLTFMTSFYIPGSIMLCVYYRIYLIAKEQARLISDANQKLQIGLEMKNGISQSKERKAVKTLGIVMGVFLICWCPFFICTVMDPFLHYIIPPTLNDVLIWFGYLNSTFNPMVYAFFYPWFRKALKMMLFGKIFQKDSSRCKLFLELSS", "test": "Fluorescence-based cell-based high throughput dose response assay to identify antagonists of the human trace amine associated receptor 1 (TAAR1).", "format": "functional"}, "[12]": {"test_system": "H4", "test": "Luminescence Cell-Based Dose Response HTS to Identify Activators of 5'UTR Stem-Loop Driven Prion Protein mRNA Translation in H4 Neuroglioblastoma Cells. [Related pubchem assays: 1829 (Project Summary), 1814 (Primary HTS)]", "format": "functional", "conditions": "Homo sapiens"}, "[13]": {"test": "Luminescence Cell-Based Dose Response HTS to Identify Activators of Luciferase Translation or Activity in H4 […] Cells. [Related pubchem assays: 1829 (Project Summary), 1814 (Primary HTS)]", "format": "functional"}, "[14]": {"test": "Luminescence Cell-Based Dose Confirmation to Identify Activators of 5'UTR Stem-Loop Driven Alpha-Synuclein mRNA Translation in H4 Neuroglioblastoma Cells. [Related pubchem assays: 1829 (Project Summary), 1814 (Primary HTS)]", "format": "functional"}, "[15]": {"test": "Luminescence Cell-Based Dose Response to Identify Activators of Luciferase Translation or Activity in H4-C Neuroglioblastoma Cells. [Related pubchem assays: 1829 (Project Summary), 1814 (Primary HTS)]", "format": "functional"}, "[16]": {"test": "Luminescence Cell-Based Dose Response to Identify Activators of 5'UTR Stem-Loop Driven Prion Protein mRNA Translation in H4-C Neuroglioblastoma Cells. [Related pubchem assays: 1829 (Project Summary), 1814 (Primary HTS)]", "format": "functional"}, "[17]": {"biological_target": "T1, Trace amine-associated receptor 1", "test": "Counterscreen for antagonists of the human trace amine associated receptor 1 (hTAAR1): Fluorescence-based cell-based high throughput dose response assay to identify TAAR1 Agonists.", "format": "functional"}, "[18]": {"biological_target": "T2, Zinc finger protein mex-5 (Caenorhabditis elegans, UniProt Q9XUB2)", "T2 sequence (Q9XUB2 whole entry)": "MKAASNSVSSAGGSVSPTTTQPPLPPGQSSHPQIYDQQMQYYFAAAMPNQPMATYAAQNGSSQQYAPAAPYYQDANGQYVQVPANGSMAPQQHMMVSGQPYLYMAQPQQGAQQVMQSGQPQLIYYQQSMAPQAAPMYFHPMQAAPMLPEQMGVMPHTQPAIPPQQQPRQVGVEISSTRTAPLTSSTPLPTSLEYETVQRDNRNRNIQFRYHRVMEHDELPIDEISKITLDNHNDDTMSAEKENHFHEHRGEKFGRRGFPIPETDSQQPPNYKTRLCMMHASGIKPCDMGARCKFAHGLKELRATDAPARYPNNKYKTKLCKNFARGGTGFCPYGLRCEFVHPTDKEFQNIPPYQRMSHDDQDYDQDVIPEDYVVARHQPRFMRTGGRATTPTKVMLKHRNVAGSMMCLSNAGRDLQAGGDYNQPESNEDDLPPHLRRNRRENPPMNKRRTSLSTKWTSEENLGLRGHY", "test": "potency of MEX-5 RNA-binding blockers – biochemical, C. elegans, fluorescence polarization, dose response (AID 1960)"}, "[19]": {"test": "cells"}, "[20]": {"biological_target": "T3, RNA-binding protein pos-1 (Caenorhabditis elegans, UniProt G5EF15)", "T3 sequence (G5EF15 whole entry)": "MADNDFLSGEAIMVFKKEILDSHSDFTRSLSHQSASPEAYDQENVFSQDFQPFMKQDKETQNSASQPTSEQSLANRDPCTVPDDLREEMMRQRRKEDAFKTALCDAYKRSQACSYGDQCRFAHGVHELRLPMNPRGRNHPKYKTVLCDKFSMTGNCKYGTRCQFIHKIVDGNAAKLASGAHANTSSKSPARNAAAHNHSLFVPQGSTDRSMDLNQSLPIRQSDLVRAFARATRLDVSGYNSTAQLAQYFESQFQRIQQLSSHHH", "test": "disruptors of C. elegans POS-1 RNA interaction – biochemical, fluorescence polarization, dose response (AID 1964);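 note: purified POS-1 fused to maltose binding protein made in E. coli; potency of compounds blocking POS-1 binding to fluorescent RNA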"}, "[21]": {"test": "viability loss in HEK293T cells – cell-based, CellTiter-Glo luminescence, dry powder, set 6, cytotoxicity control, dose response (AID 651949)", "format": "functional", "conditions": "HEK293"}, "[22]": {"test": "viability loss in A549 lung cancer cells – cell-based, cherry-picks, […], cytotoxicity control, dose response (AID 1053119)", "format": "functional"}, "[23]": {"test": "blockers of FN fibrillogenesis by fibroblasts – AH1F cells, Alexa488-FN fluorescence, cherry-picks, dose response (AID 1035475)", "format": "functional, cell-based"}}, "note": "pIC50: −log10 of the molar value. Activity calls are given as the source filed them.", "data": [{"smiles": "COc1ccc(C#Cc2ccc(C(=O)N3CCC[C@@H](O)C3)cc2F)cc1", "values": [{"measurement": "pIC50", "setting": "[1]", "value": 6.40}]}, {"smiles": "C[C@@H]1CN([C@H](C)CO)C(=O)c2cc(NC(=O)Nc3ccccc3)ccc2O[C@@H](C)CCCCO[C@H]1CN(C)Cc1ccc(C(F)(F)F)cc1", "values": [{"measurement": "AC50", "setting": "[2]", "value": "36.2 µM (active)"}, {"measurement": "AC50", "setting": "[3]", "value": "24.2 µM (active)"}, {"measurement": "AC50", "setting": "[4]", "value": "10.9 µM (active)"}, {"measurement": "AC50", "setting": "[5]", "value": "31.7 µM (active)"}]}, {"smiles": "Cn1cc(S(=O)(=O)CC(=O)N2CCc3ccccc32)c2ccccc21", "values": [{"measurement": "IC50", "setting": "[6]", "value": "> 80 µM (inactive)"}, {"measurement": "IC50", "setting": "[7]", "value": "> 122 µM (inactive)"}, {"measurement": "IC50", "setting": "[8]", "value": "> 122 µM (inactive)"}]}, {"smiles": "Cc1cc(/C=C(\\C#N)C(=O)NCc2cccs2)c(C)n1-c1ccccc1F", "values": [{"measurement": "EC50", "setting": "[9]", "value": "> 29.9 µM (inactive)"}, {"measurement": "IC50", "setting": "[10]", "value": "> 29.9 µM (inactive)"}, {"measurement": "IC50", "setting": "[11]", "value": "3.75 µM (active)"}, {"measurement": "EC50", "setting": "[12]", "value": "61 µM (active)"}, {"measurement": "EC50", "setting": "[13]", "value": "< 0.1 µM (active)"}, {"measurement": "EC50", "setting": "[14]", "value": "0.472 µM (active)"}, {"measurement": "EC50", "setting": "[15]", "value": "0.225 µM (active)"}, {"measurement": "EC50", "setting": "[16]", "value": "0.952 µM (active)"}, {"measurement": "EC50", "setting": "[17]", "value": "> 29.9 µM (inactive)"}]}, {"smiles": "CCn1c(=N)c(S(=O)(=O)c2ccccc2)cc2c(=O)n3ccccc3nc21", "values": [{"measurement": "EC50", "setting": "[18]", "value": "> 300 µM (not active)"}, {"measurement": "AC50", "setting": "[19]", "value": "1.01 µM (active)"}, {"measurement": "EC50", "setting": "[20]", "value": "> 300 µM (not active)"}]}, {"smiles": "COc1ccc(-c2nnc(SCc3ccc(Cl)cc3)o2)cc1", "values": [{"measurement": "AC50", "setting": "[21]", "value": "> 52 µM (inactive)"}]}, {"smiles": "CC(C)(C)[S@+]([O-])N1Cc2cc(C(=O)NCc3ccccc3F)nc(-c3cccc(-c4cncnc4)c3)c2[C@@H]1CCO", "values": [{"measurement": "AC50", "setting": "[22]", "value": "> 52 µM (inactive)"}, {"measurement": "AC50", "setting": "[23]", "value": "50.8 µM (active)"}]}]}
